For data set [1], the system named is HCT116 cells. Put plainly: KRS cleavage in cells (GFP-KRS, western blot with anti-GFP antibody). In kind it is cell-based. Here is the method:
The cells were lysed with 50 mM Tris-HCl (pH 7.4) buffer containing 150 mM NaCl, 10 mM NaF, 12 mM beta-glycerophosphate, 1 mM EDTA, 1% NP-40, 10% glycerol, and protease inhibiting agent. Then, the supernatant was dissolved in SDS sample buffer, followed by separation using SDS-PAGE. For immunoblotting of endogenous KRS, anti-KRS antibody was used. Antibodies against Hsp90, syntenin-1, GFP, myc, caspase-3, -6, -8, -9, while syntenin-1 were purchased from Santa Cruz, and antibodies against alix were purchased from Cell Signaling. The anti-KRS antibody was manufactured by ordinary procedures in which KRS protein (Genbank Accession No. NP_005539.1) represented by SEQ ID NO: 2 was injected into New Zealand white rabbits to induce immune response and their antibodies were obtained.
For orientation: Immunoblotting shows a protein as a band on a membrane.

Data set [2] has as its system HCT116 cells. Put plainly: KRS secretion test (TCA precipitation, western blot). The conditions noted are these: for KRS secretion after caspase inhibitor treatment: HCT116 cells, serum starvation media, inhibitor 14 uM, 12 hr, anti-KRS antibody; for secretion of KRS variant compared with WT: myc-tagged variant transfected into HCT116 cells, serum starvation 12 hr, anti-myc antibody. It is filed as cell-based. Here is the method: HCT116 cells were incubated in RPMI media containing 10% FBS (Hyclone), and were grown to 60% confluency on 60-mm dish. The cells were washed twice with PBS, incubated in serum-free RPMI media, and treated with 10 ng/ml TNF-α for 12 hr. The supernatant of the cell culture liquid was cautiously collected, followed by centrifugation at 500 g for 10 min. The supernatant thus obtained was again centrifuged at 10,000 g for 30 min, thereby removing membrane organelles. Then, 12% TCA was added to the supernatant, followed by culture at 4° C. for 12 hr, so the supernatant was subjected to precipitation treatment. After the precipitation treatment, the supernatant was centrifuged at 18,000 g for 15 min, and the upper part was then discarded and the remaining pellets were neutralized with 100 mM HEPES (pH 8.0), and then 5× sample buffer was added to perform separation using SDS-PAGE. The products separated by SDS-PAGE were western blotted using anti-KRS antibody.

Data set [3] has as its system KRS and syntenin-1. Put plainly: Bimolecular fluorescence complementation (BiFC) assay. In kind it is cell-based. Conditions: KRS-VN173 and syntenin-1-VC155 transfected cells, serum starvation 4 hr. As for the experimental part:
KRS-VN173 plasmid and syntenin-1-VC155 plasmid were all transduced in HCT116 cells, and the cells were incubated in starvation condition or serum-free condition for 4 hr. The HCT116 cells were located on 9-mm coverslip, fixed using 4% paraformaldehyde, and washed shortly with cool PBS. The cells were incubated in 5% BSA blocking buffer for 1 hr, and DAPI stained for 10 min. The cells were washed six times with cool PBS five times for 5 min for each time, and then mounted on slide glass. Thereafter, the samples were observed using confocal laser scanning microscope A1 (Nikon).

For data set [4], the system named is HCT116 cells. The experiment in a line: KRS exosome secretion (exosomes isolated at 100,000 g, western blot). In kind it is cell-based. Conditions: for exosome secretion of KRS variant compared with WT: myc-tagged variant transfected into HCT116 cells, serum starvation 12 hr. As for the experimental part:
HCT116 cells were incubated for a predetermined period of time in each treatment condition (especially, serum-starvation condition), and then the media were separated and consecutively centrifuged. Centrifugation was conducted three times at 500 g (10 min), 10,000 g (30 min), and 100,000 g (90 min) to form microvesicle pellets. The amount of microvesicle proteins was determined by using Bradford assay.

For data set [5], the system named is KRS and syntenin-1. Put plainly: KRS-syntenin-1 interaction by immunoprecipitation and western blot. In kind it is cell-based. The conditions noted are these: for binding of KRS variant with syntenin-1 compared with WT: myc-tagged variant transfected into cells, immunoprecipitation and western blot. As for the experimental part:
For immunoprecipitation, the cells were lysed at 4° C. in 50 mM HEPES (pH 7.4) buffer containing 150 mM NaCl, 0.5% NP-40, 2 mM EDTA, 5% glycerol and protease inhibiting agent (Calbiochem, San Diego, Calif., USA). Protein extracts were cultured together with protein-specific antibodies thereagainst with stirring at 4° C. In addition, protein G agarose was added. 4 hr after the addition of the protein G agarose, precipitate samples were obtained by centrifugation. The precipitate samples were washed three times for 5 min using cool lysis buffer. The precipitates were separated by SDS-PAGE.

In data set [6] the test system is RAW264.7 cells. Put plainly: TNF-alpha secretion ELISA assay. In kind it is cell-based. Conditions: RAW 264.7 cells; 100 nM KRS proteins or KRS exosomes 0.05, 0.5, 5 ug. Here is the method: RAW264.7 cells (2×10^4) were incubated in 24-well plate containing DMEM supplemented with 10% FBS and 1% antibiotic for 12 hr, and starved in serum starvation media for 2 hr. 100 nM KRS protein (WT, ▴N12 each) and KRS exosomes (0.05, 0.5, 5 ug) were added, followed by treatment for 6 hr. Thereafter, cell media were collected by centrifugation at 3,000 g for 5 min. TNF-alpha secreted from the cells was detected using the TNF-alpha ELISA kit (Pharmingen, BD Science) according to the manufacturer's protocol.
For orientation: An ELISA detects its analyte on a solid surface through an enzyme-linked reagent.

A short description of another data set: Cytokine activity of KRS. The conditions noted are these: WT compared with N-terminus truncated KRS.
For data set [7], the system named is RAW264.7 cells. The experiment in a line: Luminex screening assays (bead-based multiplex kits). It is filed as cell-based. Conditions: 100 nM KRS proteins or KRS exosomes 5 ug/ml; 12 hr. As for the experimental part:
RAW264.7 cells were incubated in 12-well plate using DMEM media containing 10% FBS and 1% antibiotic for 12 hr, and starved in serum starvation media for 2 hr. KRS proteins (WT, ▴N12 each) and KRS exosomes (5 ug) in different amounts were respectively added to the media. After 12 hr, conditioned media were collected, and spun down through centrifugation at 3,000 g for 10 min. For multiplex assay, premixed beads for TNF-alpha, mCRG-2, IL-6, mIL-lbeta, mIL-12, mIL-10, MMP9, INF-gamma, mMIP3a, and CXCL10 were purchased from R&D Science, and used according to the manufacturer's protocol. Each sample were analyzed by BioRad Bioplex 200 system and software.

Data set [8] concerns RAW264.7 cells. Put plainly: Wound healing assay. The conditions noted are these: RAW 264.7 monolayer; 100 nM KRS proteins or KRS exosomes 0.05, 0.5, 5 ug; 12 hr. It is filed as cell-based. Here is the method: RAW264.7 cells were dispensed on the coverslip, and grown to >95% confluency. Subsequently, the RAW 264.7 monolayer was scratched to create wounds, and then the wounds were treated with 100 nM KRS proteins (WT, ▴N12) or KRS exosomes (0.05, 0.5, 5 ug) in their respective concentrations, followed by incubation for 12 hr. The cell morphology of cells was observed using microscopy.

Residues, ends and D or L forms follow the SMILES beside them. *: point of attachment. Cbz = O=C(OCc1ccccc1)*; CH2F = FC*

In the case of `COC(=O)C[C@H](NC(=O)[C@H](C)NC(=O)[C@@H](NC(=O)OCc1ccccc1)C(C)C)C(=O)CF` [pan-caspase inhibitor, Z-VAD-FMK] (Cbz-Val-Ala-Asp(OMe)-CH2F), the “KRS cleavage after caspase inhibitor treatment” value in the data set with HCT116 cells [1] (GFP-KRS overexpressed cells, serum starvation media, Z-VAD-FMK 14 uM, 1 hr) is “reduced”. The “KRS secretion after caspase inhibitor treatment” value in the data set with HCT116 cells [2] was “reduced”.
As for “D12A mutant: variant in which Asp, 12th amino acid of KRS WT, is replaced with Ala; not cleaved by caspase-8”, the “cleavage of KRS variant compared with WT” value in the data set on HCT116 cells [1] (GFP-KRS variant overexpressed in HCT116 cells, serum starvation 1 hr) was “reduced”. In addition, in the data set with HCT116 cells [2], the “secretion of KRS variant compared with WT” value was “reduced”. The “BiFC fluorescence (KRS-syntenin binding)” value with KRS and syntenin-1 [3] is recorded as “not observed”. In the data set on HCT116 cells [4], the “exosome secretion of KRS variant compared with WT” value was “significantly reduced”. For the same compound, the “binding of KRS variant with syntenin-1 compared with WT” value in the data set with KRS and syntenin-1 [5] was “less”.
Turning to “KRS WT: full-length human lysyl tRNA synthetase (1-597), SEQ ID NO: 2”, in the data set with RAW264.7 cells [6], the “TNF-alpha secretion from macrophages” value is “increasing TNF-alpha secretion”. In “Cytokine activity of KRS”, the cytokine activity result is reported as “identical”. Besides, in the data set with RAW264.7 cells [7], the “secretion of IL-6 from macrophages” value was “induced”, the “secretion of MMP9 from macrophages” value was “induced”, the “secretion of TNF-alpha from macrophages (luminex)” value is recorded as “induced” and the “secretion of mCRG-2 from macrophages” value is reported as “induced”. In addition, in the data set with RAW264.7 cells [8], the “migration of macrophages (wound-healing assay)” value is listed as “increased”.
On to Z-VAD-DQMD [caspase-3 inhibitor], for which the “KRS secretion after caspase inhibitor treatment” value in the data set with HCT116 cells [2] is on record as “only caspase-8 inhibitor inhibited KRS secretion”.
As to Z-VAD-IETD [caspase-8 inhibitor], the “KRS secretion after caspase inhibitor treatment” value in the data set with HCT116 cells [2] is recorded as “inhibited KRS secretion”. Moreover, the “BiFC fluorescence (KRS-syntenin binding)” value in the data set on KRS and syntenin-1 [3] is “not observed”. The “binding between KRS and syntenin increased by starvation” value in the data set with KRS and syntenin-1 [5] (serum starvation medium with or without caspase-8 inhibiting agent, IP of syntenin-1, anti-KRS western blot) is on record as “reduced”.
As for Z-VAD-VEID [caspase-6 inhibitor], the “KRS secretion after caspase inhibitor treatment” value in the data set with HCT116 cells [2] is given as “only caspase-8 inhibitor inhibited KRS secretion”.
Consider “si-KRS: si-RNA against KRS from Invitrogen: GGGAAGACCCAUACCCACACAAGUU, AACUUGUGUGGGUAUGGGUCUUCCC (chemistry not given here)”, for which the “KRS proteins existing in the exosome” value in the data set with HCT116 cells [4] (exosomes purified from si-RNA treated cells, 48 hr then serum starvation 12 hr, vs si-con) was “reduced”.
Regarding “▴N12: KRS fragment 13-597 a.a., the peptide of SEQ ID NO: 1, first 12 N-terminal amino acids deleted”, in the data set on RAW264.7 cells [6], the “TNF-alpha secretion from macrophages” value was “increasing TNF-alpha secretion”. Moreover, in “Cytokine activity of KRS”, the cytokine activity result is “identical”. Moreover, in the data set on RAW264.7 cells [7], the “secretion of IL-6 from macrophages” value was “induced”, the “secretion of MMP9 from macrophages” value is reported as “induced”, the “secretion of TNF-alpha from macrophages (luminex)” value is “induced” and the “secretion of mCRG-2 from macrophages” value is “induced”. In addition, the “migration of macrophages (wound-healing assay)” value in the data set on RAW264.7 cells [8] was “increased”.
Turning to “▴c5: deletion mutant KRS with truncated C-terminus, 1-592 a.a of SEQ ID NO: 2”, in the data set with HCT116 cells [2], the “secretion of KRS variant compared with WT” value was “less”. Besides, in the data set with HCT116 cells [4], the “exosome secretion of KRS variant compared with WT” value is given as “reduced”. Also, the “binding of KRS variant with syntenin-1 compared with WT” value in the data set with KRS and syntenin-1 [5] is recorded as “significantly deteriorated”.

These data come from US20170073659A1, “NOVEL LYSYL TRNA SYNTHETASE FRAGMENT AND MICROVESICLES COMPRISING SAME” (Medicinal Bioconvergence Research Center, priority 2014, published 2017).
